*1 amine or outer side, *2 acyl side, *3 side chain or, on linkers, in order; H or OH if unused. Where a SMILES comes first, the peptide text is derived from it. Side-chain parts run from the residue outwards. [ ]: non-standard residue; d: D form. The star is where a group is joined. C20 diacid = O=C(O)CCCCCCCCCCCCCCCCCCC(=O)*; γGlu = O=C(O)[C@H](CCC(=O)[*:2])N[*:1]; X51 = COc1cccc(C2(C(=O)*)CCCC2)c1; X59 = COc1ccc(C2(C(=O)*)CCCC2)cc1; X55 = COc1cccc(C(C)(C)C(=O)*)c1; X30 = CC(C)(C(=O)*)c1ccc(F)cc1; X41 = C[C@H](C(=O)*)c1ccccc1; AEEA = NCCOCCOCC(=O)O; Aib = CC(C)(N)C(=O)O; βAla = NCCC(=O)O
Columns and labels:
Format in all cases: cell-based
GIP receptor [1] = target: T1, GIP receptor (Homo sapiens, UniProt P48546); experiment: PathHunter β-arrestin assay, GIP receptor; set-up: host or cells: PathHunter CHO-K1 GIPR β-Arrestin Cell Line; conditions: β-arrestin-2 recruitment, PathHunter CHO-K1 GIPR β-Arrestin Cell Line, 90 min at 37° C.; normalized to GIP; read-out: GIPR β Arrestin EC50
T1 sequence (P48546 22-466): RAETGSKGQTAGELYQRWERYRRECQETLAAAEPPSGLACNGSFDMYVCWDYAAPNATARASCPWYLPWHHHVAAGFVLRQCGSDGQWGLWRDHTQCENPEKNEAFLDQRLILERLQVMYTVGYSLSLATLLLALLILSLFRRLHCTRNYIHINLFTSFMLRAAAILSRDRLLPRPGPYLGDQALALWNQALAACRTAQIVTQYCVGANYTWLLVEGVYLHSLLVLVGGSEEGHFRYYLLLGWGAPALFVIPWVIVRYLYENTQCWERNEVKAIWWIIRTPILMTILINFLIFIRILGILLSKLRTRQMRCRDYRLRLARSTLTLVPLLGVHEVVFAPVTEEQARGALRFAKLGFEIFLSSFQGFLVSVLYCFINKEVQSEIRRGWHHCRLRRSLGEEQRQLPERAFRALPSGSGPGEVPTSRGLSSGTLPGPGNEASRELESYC

GIP receptor [2] = target: T1, GIP receptor; experiment: HitHunter cAMP assay, GIP receptor; conditions: for EC50: CHO cells stably expressing GIP receptor, cAMP accumulation, 30 min, read-out: EC50 GIP-1R; for Emax: CHO cells, cAMP, normalized to maximum signal from GIP (high) and DMSO (low), read-out: Emax GIP-1R
GLP-1 receptor [3] = target: T2, GLP-1 receptor (Homo sapiens, UniProt P43220); experiment: HitHunter cAMP assay, GLP-1 receptor; conditions: for EC50: CHO cells stably expressing human GLP-1 receptor, cAMP accumulation, 30 min, read-out: EC50 GLP-1R; for Emax: CHO cells, cAMP, normalized to maximum signal from GLP-1 (high) and DMSO (low), read-out: Emax GLP-1R
GLP-1 receptor [4] = target: T2, GLP-1 receptor; experiment: PathHunter β-arrestin assay, GLP-1 receptor; set-up: host or cells: PathHunter CHO-K1 GLP1R β-Arrestin Cell Line; conditions: β-arrestin-2 recruitment, PathHunter CHO-K1 GLP1R β-Arrestin Cell Line, 90 min at 37° C.; normalized to GLP-1; read-out: GLP-1R β Arrestin EC50

T2 sequence (P43220 24-463): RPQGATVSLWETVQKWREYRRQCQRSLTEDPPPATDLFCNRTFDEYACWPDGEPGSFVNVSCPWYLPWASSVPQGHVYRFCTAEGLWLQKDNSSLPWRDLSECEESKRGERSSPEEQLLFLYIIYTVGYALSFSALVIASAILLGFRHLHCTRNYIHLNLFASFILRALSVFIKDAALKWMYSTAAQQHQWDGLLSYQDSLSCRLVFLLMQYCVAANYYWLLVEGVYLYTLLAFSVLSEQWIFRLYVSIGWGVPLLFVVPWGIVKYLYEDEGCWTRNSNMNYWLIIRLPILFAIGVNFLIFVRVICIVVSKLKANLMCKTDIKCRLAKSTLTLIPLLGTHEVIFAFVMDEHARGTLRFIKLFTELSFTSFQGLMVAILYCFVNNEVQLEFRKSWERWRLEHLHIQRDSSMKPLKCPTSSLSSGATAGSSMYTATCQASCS

| Compound | EC50 (GIP receptor [1]) [nM] | EC50 (GIP receptor [2]) [nM] | Emax (GIP receptor [2]) [%] | EC50 (GLP-1 receptor [3]) [nM] | Emax (GLP-1 receptor [3]) [%] | EC50 (GLP-1 receptor [4]) [nM] |
| --- | --- | --- | --- | --- | --- | --- |
| CC[C@H](C)[C@H](NC(=O)[C@H](CC(C)C)NC(=O)[C@H](Cc1c[nH]c2ccccc12)NC(=O)[C@H](CCC(N)=O)NC(=O)[C@@H](NC(=O)[C@H](Cc1ccccc1)NC(=O)[C@H](C)NC(=O)[C@H](CCCCNC(=O)COCCOCCNC(=O)COCCOCCNC(=O)CC[C@H](NC(=O)CCCCCCCCCCCCCCCCCCC(=O)O)C(=O)O)NC(=O)[C@H](CCC(N)=O)NC(=O)[C@H](C)NC(=O)[C@@H](NC(=O)[C@H](CCCCN)NC(=O)[C@H](CC(=O)O)NC(=O)[C@H](CC(C)C)NC(=O)C(C)(C)NC(=O)[C@@H](NC(=O)[C@H](CO)NC(=O)[C@H](Cc1ccc(O)cc1)NC(=O)[C@H](CC(=O)O)NC(=O)[C@H](CO)NC(=O)[C@@H](NC(=O)[C@H](Cc1ccccc1)NC(=O)[C@@H](NC(=O)CNC(=O)[C@H](CCC(=O)O)NC(=O)CCNC(=O)C1(c2cccc(OC)c2)CCCC1)[C@@H](C)O)[C@@H](C)O)[C@@H](C)CC)[C@@H](C)CC)C(C)C)C(=O)N[C@@H](C)C(=O)NCC(=O)NCC(=O)N1CCC[C@H]1C(=O)N[C@@H](CO)C(=O)N[C@@H](CO)C(=O)NCC(=O)N[C@@H](C)C(=O)N1CCC[C@H]1C(=O)N1CCC[C@H]1C(=O)N1CCC[C@H]1C(=O)N[C@@H](CO)C(N)=O [Compound 207] ({X51-βAla}-EGTFTSDYSI[Aib]LDKIAQK([AEEA-AEEA-γGlu-C20 diacid])AFVQWLIAGGPSSGAPPPS-NH2) | > 1000 | 1 to 10 | 109 | 1 to 10 | 97 | > 1000 |
| CC[C@H](C)[C@H](NC(=O)[C@H](CC(C)C)NC(=O)[C@H](Cc1c[nH]c2ccccc12)NC(=O)[C@H](CCC(N)=O)NC(=O)[C@@H](NC(=O)[C@H](Cc1ccccc1)NC(=O)[C@H](C)NC(=O)[C@H](CCCCNC(=O)COCCOCCNC(=O)COCCOCCNC(=O)CC[C@H](NC(=O)CCCCCCCCCCCCCCCCCCC(=O)O)C(=O)O)NC(=O)[C@H](CCC(N)=O)NC(=O)[C@H](C)NC(=O)[C@@H](NC(=O)[C@H](CCCCN)NC(=O)[C@H](CC(=O)O)NC(=O)[C@H](CC(C)C)NC(=O)C(C)(C)NC(=O)[C@@H](NC(=O)[C@H](CO)NC(=O)[C@H](Cc1ccc(O)cc1)NC(=O)[C@H](CC(=O)O)NC(=O)[C@H](CO)NC(=O)[C@@H](NC(=O)[C@H](Cc1ccccc1)NC(=O)[C@@H](NC(=O)CNC(=O)[C@H](CCC(=O)O)NC(=O)CCNC(=O)C1(c2ccc(OC)cc2)CCCC1)[C@@H](C)O)[C@@H](C)O)[C@@H](C)CC)[C@@H](C)CC)C(C)C)C(=O)N[C@@H](C)C(=O)NCC(=O)NCC(=O)N1CCC[C@H]1C(=O)N[C@@H](CO)C(=O)N[C@@H](CO)C(=O)NCC(=O)N[C@@H](C)C(=O)N1CCC[C@H]1C(=O)N1CCC[C@H]1C(=O)N1CCC[C@H]1C(=O)N[C@@H](CO)C(N)=O [Compound 208] ({X59-βAla}-EGTFTSDYSI[Aib]LDKIAQK([AEEA-AEEA-γGlu-C20 diacid])AFVQWLIAGGPSSGAPPPS-NH2) | < 1000 | 1 to 10 | 109 | 1 to 10 | 111 | > 1000 |
| CC[C@H](C)[C@H](NC(=O)[C@H](CC(C)C)NC(=O)[C@H](Cc1c[nH]c2ccccc12)NC(=O)[C@H](CCC(N)=O)NC(=O)[C@@H](NC(=O)[C@H](Cc1ccccc1)NC(=O)[C@H](C)NC(=O)[C@H](CCCCNC(=O)COCCOCCNC(=O)COCCOCCNC(=O)CC[C@H](NC(=O)CCCCCCCCCCCCCCCCCCC(=O)O)C(=O)O)NC(=O)[C@H](CCC(N)=O)NC(=O)[C@H](C)NC(=O)[C@@H](NC(=O)[C@H](CCCCN)NC(=O)[C@H](CC(=O)O)NC(=O)[C@H](CC(C)C)NC(=O)C(C)(C)NC(=O)[C@@H](NC(=O)[C@H](CO)NC(=O)[C@H](Cc1ccc(O)cc1)NC(=O)[C@H](CC(=O)O)NC(=O)[C@H](CO)NC(=O)[C@@H](NC(=O)[C@H](Cc1ccccc1)NC(=O)[C@@H](NC(=O)CNC(=O)[C@H](CCC(=O)O)NC(=O)CCNC(=O)C(C)(C)c1cccc(OC)c1)[C@@H](C)O)[C@@H](C)O)[C@@H](C)CC)[C@@H](C)CC)C(C)C)C(=O)N[C@@H](C)C(=O)NCC(=O)NCC(=O)N1CCC[C@H]1C(=O)N[C@@H](CO)C(=O)N[C@@H](CO)C(=O)NCC(=O)N[C@@H](C)C(=O)N1CCC[C@H]1C(=O)N1CCC[C@H]1C(=O)N1CCC[C@H]1C(=O)N[C@@H](CO)C(N)=O [Compound 209] ({X55-βAla}-EGTFTSDYSI[Aib]LDKIAQK([AEEA-AEEA-γGlu-C20 diacid])AFVQWLIAGGPSSGAPPPS-NH2) | > 1000 | 10 to 100 | 105 | 0.1 to 1 | 101 | > 1000 |
| CC[C@H](C)[C@H](NC(=O)[C@H](CC(C)C)NC(=O)[C@H](Cc1c[nH]c2ccccc12)NC(=O)[C@H](CCC(N)=O)NC(=O)[C@@H](NC(=O)[C@H](Cc1ccccc1)NC(=O)[C@H](C)NC(=O)[C@H](CCCCNC(=O)COCCOCCNC(=O)COCCOCCNC(=O)CC[C@H](NC(=O)CCCCCCCCCCCCCCCCCCC(=O)O)C(=O)O)NC(=O)[C@H](CCC(N)=O)NC(=O)[C@H](C)NC(=O)[C@@H](NC(=O)[C@H](CCCCN)NC(=O)[C@H](CC(=O)O)NC(=O)[C@H](CC(C)C)NC(=O)C(C)(C)NC(=O)[C@@H](NC(=O)[C@H](CO)NC(=O)[C@H](Cc1ccc(O)cc1)NC(=O)[C@H](CC(=O)O)NC(=O)[C@H](CO)NC(=O)[C@@H](NC(=O)[C@H](Cc1ccccc1)NC(=O)[C@@H](NC(=O)CNC(=O)[C@H](CCC(=O)O)NC(=O)CCNC(=O)C(C)(C)c1ccc(F)cc1)[C@@H](C)O)[C@@H](C)O)[C@@H](C)CC)[C@@H](C)CC)C(C)C)C(=O)N[C@@H](C)C(=O)NCC(=O)NCC(=O)N1CCC[C@H]1C(=O)N[C@@H](CO)C(=O)N[C@@H](CO)C(=O)NCC(=O)N[C@@H](C)C(=O)N1CCC[C@H]1C(=O)N1CCC[C@H]1C(=O)N1CCC[C@H]1C(=O)N[C@@H](CO)C(N)=O [Compound 210] ({X30-βAla}-EGTFTSDYSI[Aib]LDKIAQK([AEEA-AEEA-γGlu-C20 diacid])AFVQWLIAGGPSSGAPPPS-NH2) | > 1000 | 1 to 10 | 101 | 0.1 to 1 | 104 | > 1000 |
| CC[C@H](C)[C@H](NC(=O)[C@H](CC(C)C)NC(=O)[C@H](Cc1c[nH]c2ccccc12)NC(=O)[C@H](CCC(N)=O)NC(=O)[C@@H](NC(=O)[C@H](Cc1ccccc1)NC(=O)[C@H](C)NC(=O)[C@H](CCCCNC(=O)COCCOCCNC(=O)COCCOCCNC(=O)CC[C@H](NC(=O)CCCCCCCCCCCCCCCCCCC(=O)O)C(=O)O)NC(=O)[C@H](CCC(N)=O)NC(=O)[C@H](C)NC(=O)[C@@H](NC(=O)[C@H](CCCCN)NC(=O)[C@H](CC(=O)O)NC(=O)[C@H](CC(C)C)NC(=O)C(C)(C)NC(=O)[C@@H](NC(=O)[C@H](CO)NC(=O)[C@H](Cc1ccc(O)cc1)NC(=O)[C@H](CC(=O)O)NC(=O)[C@H](CO)NC(=O)[C@@H](NC(=O)[C@H](Cc1ccccc1)NC(=O)[C@@H](NC(=O)CNC(=O)[C@H](CCC(=O)O)NC(=O)CCNC(=O)[C@@H](C)c1ccccc1)[C@@H](C)O)[C@@H](C)O)[C@@H](C)CC)[C@@H](C)CC)C(C)C)C(=O)N[C@@H](C)C(=O)NCC(=O)NCC(=O)N1CCC[C@H]1C(=O)N[C@@H](CO)C(=O)N[C@@H](CO)C(=O)NCC(=O)N[C@@H](C)C(=O)N1CCC[C@H]1C(=O)N1CCC[C@H]1C(=O)N1CCC[C@H]1C(=O)N[C@@H](CO)C(N)=O [Compound 211] ({X41-βAla}-EGTFTSDYSI[Aib]LDKIAQK([AEEA-AEEA-γGlu-C20 diacid])AFVQWLIAGGPSSGAPPPS-NH2) | > 1000 | 10 to 100 | 103 | 0.1 to 1 | 107 | > 1000 |

Reference: patent US12281149B2, “Modulators of G-protein coupled receptors” (priority 2021, dated 2025)
